Experimental data taken from patent publication US20080182822A1, “Liquid Pharmaceutical Compositions Comprising a Bisphosphonate Compound” (Besins Healthcare SA, priority 2006, published 2008).
Read-outs that look alike come from different tables or passages of the source.

Experiments:
[1] = rat, published data, Lin et al.; cited from earlier work
[2] = test system: ovariectomized rats; conditions: OVX rats
Text: (§1) Ovariectomized rats are a recognised model for bone loss study, as the surgical operation causes an estrogen deficiency which results in rapid bone loss. See Guideline on the evaluation of medicinal products in the treatment of primary osteoporosis, CPMP/EWP/552/95 available for download from the European Medicine Agency at: http://www.emea.europa.eu/.
(§2) 13-week old rats (Sprague-Dawley, virgin female), 8 per group, were sham operated (group 1-control) or ovariectomized (OVX) (groups 2 to 7) on the day before the first day of treatment.
Femur and L2-L5 lumbar vertebrae block Bone Mineral Density (BMD) were calculated from in vivo Dual-energy X-ray Absorptiometry (DXA) measurement at the same time points with an Hologic apparatus. BMD was also measured ex vivo on dissected femur and L4 vertebrae at the end of the treatment period.

[3] = test system: ovariectomized rats; conditions: OVX rats; remark: listed apart in the source
Text: as §1, §2
Urinary deoxypyridinoline (D-pyr) and creatinine (Creat) were determined at baseline, week 4 and week 8. The ratio of D-Pyr to Creat is a recognised marker of bone resorption. See, e.g., Christenson RH “Biochemical markers of bone metabolism: an overview” Clin Biochem 1997, 30(8), 573-593.

[4] = rat
[5] = Bisphosphonate concentration at about 90% saturation in the vehicle; assay type: physicochemical
Experimental: Compositions in various vehicles (water/ethanol or buffer/ethanol, with or without additional ingredients, water (pure aqueous)) were prepared, using each bisphosphonate at a concentration of about 90% the saturation value. For example, “90/10” denotes a 90/10 (v/v) mixture of water/ethanol; “90/10 pH6” denotes a 90/10 (v/v) mixture of phosphate buffer pH6/ethanol.
Bisphosphonate concentrations are at about 90% saturation.
Risedronate sodium is generally administered using a dose of 35 mg of anhydrous monosodium risedronate, once a week. Advantageously, for a topical dose of 35 mg, this corresponds to 1.5 g of a solution according to one embodiment (risedronate at 90% saturation in phosphate-buffered hydroalcoholic solution 90/10 […], i.e. anhydrous monosodium risedronate at 22.4 mg/g). The same topical dose of 35 mg, corresponds to 0.8 g of another embodiment (risedronate at 90% saturation in pure water, i.e. anhydrous monosodium risedronate at 45.3 mg/g). […] The in vitro condition of application—i.e. 10 μl/1.77 cm^2—mimics an in vivo situation wherein the formulation is applied as a thin layer of 1-2 mg of formulation/cm^2.

[6] = In vitro dermal absorption, static diffusion cell (Franz cell)
[7] = group 4: 4.46 mg/kg daily topical (reduced from 15.6 mg/kg/d after 2 weeks)
[8] = group 5: 15.6 mg/kg weekly topical
[9] = group 7: 10.85 mg/kg twice weekly topical (reduced from 15.6 mg/kg after 2 weeks)
[10] = phosphate-buffered hydroalcoholic solution 90/10
[11] = buffered solution, compared to 100% phosphate buffer solution, FIG. 10 / FIG. 11

## NCCCC(O)(P(=O)(O)O)P(=O)(O)O [alendronate, 4-amino-1-hydroxybutylidene-1,1-bisphosphonic acid]
[1]
  bone recovery after oral administration: 0.9%
[2]; topical groups 4-7, 8 weeks
  BMD results compared with subcutaneous injection (group 3) or control (group 1): similar
[2]; topically treated groups 4 and 7
  BMD in the distal metaphysis (part of femur) compared with the subcutaneous injection group (group 3): statistically higher
[3]; group 3: 2 μg/kg daily sc inj
  D-pyr/Creat, Week 4: 118 ± 64
  D-pyr/Creat, Week 8: 72 ± 13
[3]; [7]
  D-pyr/Creat, Week 4: 58 ± 13
  D-pyr/Creat, Week 8: 42 ± 15
[3]; [8]
  D-pyr/Creat, Week 4: 138 ± 60
  D-pyr/Creat, Week 8: 67 ± 26
[3]; [9]
  D-pyr/Creat, Week 4: 88 ± 52
  D-pyr/Creat, Week 8: 57 ± 24
[4]; data from Example 4
  bone recovery after dermal administration: 0.2%
[4]; dermal administration
  delivered dose contained in gauze wrap removed at 24 h: about 10%
[4]; dermal administration, 24 h
  delivered dose contained in washing medium and swabs: about 46%
[4]; gauze wrap + washing medium and swabs at 24 h
  dermally delivered alendronate not absorbed: 56%

## NCCCC(O)(P(=O)(O)O)P(=O)(O)O [Sodium Alendronate]
[5]; [10]
  concentration at 90% saturation: 10.4 mg/g
[5]; pure water
  concentration at 90% saturation: 28.09 mg/g

## O=P([O-])(O)C(O)(Cc1cccnc1)P(=O)(O)O.[Na+] [Sodium Risedronate]
[5]; [10]
  concentration at 90% saturation: 22.4 mg/g
[5]; pure water
  concentration at 90% saturation: 45.3 mg/g

## O=P(O)(O)C(O)(Cc1cccnc1)P(=O)(O)O [risedronate, 1-hydroxy-2-(3-pyridyl)ethylidene-1,1-bisphosphonic acid]
[6]; FIG. 12 / FIG. 13
  effect of glycerine on the amount recovered in the receptor fluid and the dermis: does not significantly increase
[6]; [11]
  effect of propylene glycol (PG) on the amount recovered: does not significantly affect
  effect of urea on the amount recovered in the receptor fluid and the skin/dermis: increases
[6]; menthol at 90% of saturating concentration in 90/10 phosphate buffer/ethanol, compared to pure phosphate buffer solution, FIG. 6 / FIG. 7
  effect of menthol on the amount recovered in the receptor fluid and dermis: does not increase
[6]; oleic acid at 90% of maximum solubility in 90/10 phosphate buffer/ethanol with Tween 80 at 4.5%, FIG. 12 / FIG. 13
  amount recovered in the receptor fluid and the dermis with oleic acid, compared to the 100% phosphate buffer solution: lower
[6]; urea incorporated in phosphate buffer solution, FIG. 8 / FIG. 9
  effect of urea on the amount recovered in the receptor fluid and the skin: neutral effect
[6]; water/alcohol compositions, FIG. 1 / FIG. 2
  recovery in the receptor fluid and the dermis at 24 hrs (crossing of the skin): does cross the skin
[6]; water/alcohol ratios, FIG. 1 / FIG. 2
  effect of the increase in alcohol content on absorption, as percentage of the dose applied: slightly increased
